Experimental findings from patent publication US9303032B2, “2-(pyridin-2YL)-1, 7-diaza-spiro [4.4] nonane-6-one compound as voltage-gated sodium channels modulator” (CONVERGENCE PHARMACEUTICALS LIMITED, priority 2011, dated 2016) are described below.

In this assay the target is T1, hNaV1.7 (Homo sapiens, UniProt Q15858).
T1 construct: expressed in transfected cells; host or cells: HEK293
The assay is described as follows: QPatch NaV1.7 assay. The assay is classed as cell-based. The following applies: HEK293-hNaV1.7 cells; holding potential −90 mV, most channels in closed state; read-out: QP Nav1.7 −90 mV pIC50 (converted). Here is the method: The compounds of the invention were tested in a QPatch NaV1.7 assay.
HEK293-hNaV1.7 cells were grown in DMEM-F12+10% FBS culture media at 37° C. At a confluency of 50-70% cells were dissociated from culture flasks & triturated to ensure unicellular cell suspension; cell density was measured & adjusted to 2-3×10^6 cells/ml. Recordings were obtained using QPatch16×. The external solution was (in mM): NaCl, 128; KCl, 5; MgCl2, 2; CaCl2, 2; Glucose, 30; HEPES, 15; pH 7.3, 305-315 mOsm. Following seal formation and whole-cell access using internal solution (containing in mM: CsF, 135; EGTA/CsOH, ⅕; HEPES 10; NaCl, 10; pH 7.3, 310-320 mOsM), voltage pulse protocols were applied. Initially a steady state inactivation voltage protocol was used to determine the half-maximal voltage for steady state inactivation (V1/2 SSI). Two holding voltages were used to determine test drug inhibition: −90 mV, where most of the channels are in a closed state; and V1/2 SSI, where half of the channels are inactivated. Currents were elicited every 10 seconds by stepping to a membrane potential of 0 mV for 20 ms. Four-point cumulative concentration responses were derived by determining the peak current amplitude at each concentration of test drug over 120 second application. Curves were fitted with the Hill equation yielding pIC50 values at −90 mV and V1/2 SSI holding potentials.
Background: The patch-clamp technique gives a direct electrical read-out from membranes.

Structures can show the parent of a compound that is named as a salt.

T1 sequence (Q15858 whole entry): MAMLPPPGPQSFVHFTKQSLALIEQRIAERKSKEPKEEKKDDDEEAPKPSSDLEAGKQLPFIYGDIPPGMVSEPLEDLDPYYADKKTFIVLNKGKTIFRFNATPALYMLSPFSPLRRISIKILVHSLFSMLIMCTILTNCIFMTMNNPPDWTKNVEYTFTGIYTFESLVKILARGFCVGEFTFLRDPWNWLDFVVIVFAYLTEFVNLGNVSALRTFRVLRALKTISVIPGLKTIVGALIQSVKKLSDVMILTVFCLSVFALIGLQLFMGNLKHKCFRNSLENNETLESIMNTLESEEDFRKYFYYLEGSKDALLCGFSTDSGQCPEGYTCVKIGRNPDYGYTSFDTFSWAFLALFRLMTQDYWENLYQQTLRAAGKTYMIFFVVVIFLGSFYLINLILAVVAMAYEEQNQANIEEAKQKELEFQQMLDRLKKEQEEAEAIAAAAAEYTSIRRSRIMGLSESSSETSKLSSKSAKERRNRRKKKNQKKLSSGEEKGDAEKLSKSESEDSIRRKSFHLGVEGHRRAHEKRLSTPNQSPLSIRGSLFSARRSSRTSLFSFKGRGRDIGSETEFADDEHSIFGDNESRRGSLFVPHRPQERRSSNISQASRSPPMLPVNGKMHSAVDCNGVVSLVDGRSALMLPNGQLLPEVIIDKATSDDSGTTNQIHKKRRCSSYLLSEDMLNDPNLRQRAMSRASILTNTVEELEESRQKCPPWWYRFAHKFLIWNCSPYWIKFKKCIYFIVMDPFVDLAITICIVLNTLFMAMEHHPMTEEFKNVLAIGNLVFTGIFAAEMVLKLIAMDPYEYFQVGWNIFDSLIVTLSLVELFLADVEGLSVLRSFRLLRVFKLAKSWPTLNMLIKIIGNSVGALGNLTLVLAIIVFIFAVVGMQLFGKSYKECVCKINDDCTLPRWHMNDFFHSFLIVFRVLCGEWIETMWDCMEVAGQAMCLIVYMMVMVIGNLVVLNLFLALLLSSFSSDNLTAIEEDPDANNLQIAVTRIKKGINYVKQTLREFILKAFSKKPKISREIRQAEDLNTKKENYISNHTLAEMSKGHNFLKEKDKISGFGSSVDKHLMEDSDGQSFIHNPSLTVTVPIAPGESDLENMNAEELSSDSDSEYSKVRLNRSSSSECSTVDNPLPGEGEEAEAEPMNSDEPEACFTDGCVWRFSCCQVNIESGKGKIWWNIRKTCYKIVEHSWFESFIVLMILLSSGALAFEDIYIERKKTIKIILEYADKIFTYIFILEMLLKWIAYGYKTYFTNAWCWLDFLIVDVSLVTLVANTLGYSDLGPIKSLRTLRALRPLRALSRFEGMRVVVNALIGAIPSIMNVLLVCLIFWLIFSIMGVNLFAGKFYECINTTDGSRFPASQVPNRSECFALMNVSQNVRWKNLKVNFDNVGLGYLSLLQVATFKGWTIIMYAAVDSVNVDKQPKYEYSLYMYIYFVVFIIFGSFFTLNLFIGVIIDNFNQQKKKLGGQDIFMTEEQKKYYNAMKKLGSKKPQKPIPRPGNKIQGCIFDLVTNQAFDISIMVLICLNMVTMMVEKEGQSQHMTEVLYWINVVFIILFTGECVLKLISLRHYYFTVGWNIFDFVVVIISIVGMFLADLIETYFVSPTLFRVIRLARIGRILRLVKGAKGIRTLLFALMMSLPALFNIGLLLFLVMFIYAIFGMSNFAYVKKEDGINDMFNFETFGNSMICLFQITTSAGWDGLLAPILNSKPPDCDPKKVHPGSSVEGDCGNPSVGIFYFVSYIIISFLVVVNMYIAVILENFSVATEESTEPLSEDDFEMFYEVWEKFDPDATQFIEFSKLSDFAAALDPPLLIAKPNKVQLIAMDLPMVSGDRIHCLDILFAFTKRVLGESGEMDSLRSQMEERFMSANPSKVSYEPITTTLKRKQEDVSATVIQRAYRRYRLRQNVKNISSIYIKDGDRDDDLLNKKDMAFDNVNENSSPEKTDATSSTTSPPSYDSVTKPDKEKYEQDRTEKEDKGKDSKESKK

Turning to `CN1CC[C@@]2(CC[C@H](c3cc(-c4cccc(OC(F)(F)F)c4)ccn3)N2)C1=O` [Example 1, (2R,5S)-7-Methyl-2-[4-[3-(trifluoromethoxy)phenyl]-2-pyridyl]-1,7-diazaspiro[4.4]nonan-6-one hydrochloride], the IC50 is 50.1 µM.
